ChEMBL document CHEMBL3425465, “Synthesis, antimalarial and antitubercular activities of meridianin derivatives” (Eur J Med Chem, 2015)
Values after ≈ are worked out from the molar mass of the structure shown.

Experiments:
BT-549 = test: Cytotoxicity against human BT549 cells assessed as cell growth inhibition after 48 hrs by neutral red assay; assay type: cell-based; conditions: BT-549, 48 h
KB = test: Cytotoxicity against human KB cells assessed as cell growth inhibition after 48 hrs by neutral red assay; assay type: cell-based
[1] = Selectivity index, ratio of IC50 for African green monkey VERO cells to IC50 for Plasmodium falciparum D6
[2] = Selectivity index, ratio of IC50 for African green monkey VERO cells to IC50 for Plasmodium falciparum W2
SK-OV-3 = test: Cytotoxicity against human SKOV3 cells assessed as cell growth inhibition after 48 hrs by neutral red assay; assay type: cell-based; conditions: SK-OV-3, 48 h
[3] = system: Mycobacterium tuberculosis; test: Antitubercular activity against Mycobacterium tuberculosis H37Rv assessed as […] inhibition after 7 days by broth microdilution assay; assay type: functional; conditions: 168 h
[4] = Retention time of the compound by HPLC analysis; assay type: physicochemical
LLC-PK1 = test: Cytotoxicity against pig LLC-PK1 cells assessed as cell growth inhibition after 48 hrs by neutral red assay; assay type: cell-based; conditions: Sus scrofa, LLC-PK1, 48 h
[5] = Selectivity index, ratio of IC50 for pig LLC-PK1 cells to IC50 for Plasmodium falciparum W2
Plasmodium falciparum [6] = test: Antiplasmodial activity against Plasmodium falciparum D6 infected in human RBC assessed as parasite growth inhibition measured as LDH activity after 72 hrs by plate reader analysis; assay type: functional, organism-based; conditions: Plasmodium falciparum, D6, 72 h
SK-MEL = test: Cytotoxicity against human SK-MEL cells assessed as cell growth inhibition after 48 hrs by neutral red assay; assay type: cell-based
Vero = test: Cytotoxicity against African green monkey Vero cells assessed as cell growth inhibition after 48 hrs by neutral red assay; assay type: cell-based; conditions: Chlorocebus sabaeus
[7] = Selectivity index, ratio of IC50 for pig LLC-PK1 cells to IC50 for Plasmodium falciparum D6
Plasmodium falciparum [8] = test: Antiplasmodial activity against Plasmodium falciparum W2 infected in human RBC assessed as parasite growth inhibition measured as LDH activity after 72 hrs by plate reader analysis; assay type: functional, organism-based; conditions: Plasmodium falciparum, W2, 72 h

Row | Structure (SMILES) | IC50 (BT-549) | IC50 (KB) | Ratio IC50 [1] | Ratio IC50 [2] | IC50 (SK-OV-3) | MIC90 [3] | Retention_time [4] | IC50 (LLC-PK1) | Ratio IC50 [5] | IC50 (Plasmodium falciparum [6]; read-out: IC50) | IC50 (Plasmodium falciparum [6]; read-out: pIC50 (converted)) | IC50 (SK-MEL) | IC50 (Vero) | Ratio IC50 [7] | IC50 (Plasmodium falciparum [8]; read-out: IC50) | IC50 (Plasmodium falciparum [8]; read-out: pIC50 (converted))
1 | N#Cc1ccc(S(=O)(=O)n2cc(-c3ccnc(N)n3)c3cc(Br)ccc32)cc1 | > 55 µM | > 55 µM | >5.3 | >10.6 | > 55 µM | 70.6 µM (≈ 32.1 µg/mL) | 7.09 min | > 55 µM | >10.6 | 10.3 µM | 10.3 µM | > 55 µM | > 55 µM | >5.3 | 5.2 µM | 5.2 µM
2 | Nc1nccc(-c2cn(S(=O)(=O)c3ccc(C(F)(F)F)cc3)c3ccc(Br)cc23)n1 | > 50 µM | > 50 µM | >5.6 | >5.3 | > 50 µM | – | 9.54 min | > 50 µM | >5.3 | 8.92 µM | 8.91 µM | > 50 µM | > 50 µM | >5.6 | 9.41 µM | 9.42 µM
3 | Cc1cc(C)c(S(=O)(=O)n2cc(-c3ccnc(N)n3)c3cc(Br)ccc32)c(C)c1 | > 53 µM | > 53 µM | >6.5 | >6.3 | > 53 µM | – | 10.66 min | > 53 µM | >6.3 | 8.12 µM | 8.13 µM | > 53 µM | > 53 µM | >6.5 | 8.36 µM | 8.36 µM
4 | Nc1nccc(-c2cn(S(=O)(=O)c3ccc(C(F)(F)F)cc3[N+](=O)[O-])c3ccc(Br)cc23)n1 | > 46 µM | > 46 µM | >18 | >13.5 | > 28 µM | 118 µM (≈ 64.2 µg/mL) | 8.26 min | > 46 µM | >13.5 | 2.56 µM | 2.56 µM | > 46 µM | > 46 µM | >18 | 3.41 µM | 3.41 µM
